From the supplement of paper PMC10307832

Each cell line was assayed with CN1CCC(CC1)OC2=CC(=C(C=C2)NC3=NC=C4C(=N3)N(C(=O)N4C)C5CCCC5)OC [AZ3146] + Nc1nc2[nH]cc(CCc3ccc(C(=O)N[C@@H](CCC(=O)O)C(=O)O)cc3)c2c(=O)[nH]1 [Pemetrexed] (partner 0.2 µM) (assay: relative viability (nuclei count vs DMSO), 5 days (fraction); higher = more cells survive). Conditions: first compound 8 µM.
Method in brief: (§1)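 A single step with final 0.05% Triton X-100, 1% formaldehyde and 1 ug/ml Hoechst fixed the cells and stained nuclei 5 days after treatment. Lung cancer cell lines in 1536-well plates had been treated by pin tool the day after seeding with one drug alone or a fixed anchor-drug dose plus five library-drug doses (not always all listed) in √10 steps, and nuclei were counted on 4× images. Relative viability is the ratio of nuclei in treated wells to nuclei in vehicle wells, taken as the median of duplicate plates.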

Cell Line	relative viability
SK-LU-1	0.879
PC-3 [JPC-3]	0.942
LOU-NH91	0.411
NCI-H647	0.115
NCI-H23	0.45
EPLC-272H	0.396
NCI-H2126	0.696
ChaGo-K-1	0.248
HCC-44	0.654
NCI-H1734	0.413
NCI-H650	0.948
LK-2	0.307
NCI-H2228	0.37
NCI-H2342	0.752
NCI-H1944	0.705
HARA	0.231
COR-L23	0.195
LCLC-103H	0.499
NCI-H358	0.156
SW 900	0.429
NCI-H1648	0.62
NCI-H1792	0.701
NCI-H661	0.818
NCI-H1563	0.825

Each cell line was assayed with CN1CCC(CC1)OC2=CC(=C(C=C2)NC3=NC=C4C(=N3)N(C(=O)N4C)C5CCCC5)OC [AZ3146] + CC1(C)CCC(c2ccc(Cl)cc2)=C(CN2CCN(c3ccc(C(=O)NS(=O)(=O)c4ccc(N[C@H](CCN5CCOCC5)CSc5ccccc5)c(S(=O)(=O)C(F)(F)F)c4)cc3)CC2)C1 [Navitoclax] (partner 0.5 µM) in the same assay as above. Conditions: first compound 0.08 µM.
Method in brief: as §1

Cell Line	relative viability
PC-14	0.959
NCI-H1666	0.859
EKVX	0.817
NCI-H1755	0.992
NCI-H2023	0.887
SK-LU-1	0.914
PC-3 [JPC-3]	0.679
LOU-NH91	0.685
NCI-H647	1.06
NCI-H23	0.751
EPLC-272H	0.985
NCI-H2126	0.8
ChaGo-K-1	1
HCC-44	0.877
NCI-H1734	0.821
LK-2	0.686
NCI-H2228	0.901
HARA	1.13
Calu-6	0.781
COR-L23	1.05
EBC-1	0.499
A549	1.12
NCI-H1299	1.02
NCI-H1792	0.492
IA-LM	0.713
NCI-H1703	1.06
NCI-H727	0.501

Same assay, conditions: first compound 0.253 µM

Cell Line	relative viability
PC-14	1.02
NCI-H1666	0.805
EKVX	0.907
NCI-H1755	1
NCI-H2023	1.08
HCC-78	0.795
SK-LU-1	0.702
PC-3 [JPC-3]	0.836
LOU-NH91	0.609
NCI-H647	1.07
NCI-H23	0.687
EPLC-272H	0.98
NCI-H2126	0.843
ChaGo-K-1	1
HCC-44	1.04
NCI-H1734	0.828
LK-2	0.889
NCI-H2228	0.8
NCI-H1944	1.02
HARA	1.08
Calu-6	0.952
COR-L23	1.08
EBC-1	0.464
A549	1.29
NCI-H1299	1.02
NCI-H1792	0.786
IA-LM	0.785
NCI-H1703	0.91
NCI-H727	0.476

Same assay, conditions: first compound 0.8 µM

Cell Line	relative viability
PC-14	1.12
NCI-H1666	0.951
EKVX	0.898
NCI-H1755	0.948
NCI-H2023	1.06
HCC-78	0.718
SK-LU-1	0.793
PC-3 [JPC-3]	0.802
LOU-NH91	0.76
NCI-H647	1.16
NCI-H23	0.786
EPLC-272H	1.05
NCI-H2126	0.896
ChaGo-K-1	0.897
HCC-44	0.985
NCI-H1734	0.831
LK-2	0.994
NCI-H2228	0.961
NCI-H1944	1
HARA	1.13
Calu-6	0.763
COR-L23	0.984
EBC-1	0.426
A549	1.23
NCI-H1299	1.06
NCI-H1792	0.582
IA-LM	0.699
NCI-H1703	0.993
NCI-H727	0.431

Same assay, conditions: first compound 2.53 µM

Cell Line	relative viability
PC-14	1.11
NCI-H1666	1.05
EKVX	1.02
NCI-H1755	1.03
NCI-H2023	1.04
HCC-78	0.899
SK-LU-1	0.926
PC-3 [JPC-3]	0.797
LOU-NH91	0.697
NCI-H647	1.1
NCI-H23	0.86
EPLC-272H	1.37
NCI-H2126	0.861
ChaGo-K-1	0.996
HCC-44	1.01
NCI-H1734	0.847
LK-2	0.911
NCI-H2228	0.935
NCI-H1944	1.13
HARA	1.13
Calu-6	0.665
COR-L23	1.03
EBC-1	0.412
A549	0.467
NCI-H1299	1
NCI-H1792	0.64
IA-LM	0.881
NCI-H1703	0.708
NCI-H727	0.436

Same assay, conditions: first compound 8 µM

Cell Line	relative viability
PC-14	0.898
NCI-H1666	0.81
EKVX	1.16
NCI-H1755	1.01
NCI-H2023	0.652
HCC-78	0.736
SK-LU-1	0.576
PC-3 [JPC-3]	0.85
LOU-NH91	0.7
NCI-H647	0.893
NCI-H23	0.993
EPLC-272H	1.19
NCI-H2126	0.849
ChaGo-K-1	0.672
